The molecules below were run against T1, beta-catenin-B-cell lymphoma 9 protein complex (Homo sapiens, UniProt P35222) (assay: Inhibition of full length C-terminal 6-His-tagged beta-catenin (1 to 781 residues) (unknown origin) expressed in Escherichia coli BL21 (DE3)-N-terminal biotinylated human BCL9 (350 to 375 residues) protein-protein interaction incubated for 1 hr by Alphascreen assay). Conditions: not given.
T1 sequence (P35222 whole entry): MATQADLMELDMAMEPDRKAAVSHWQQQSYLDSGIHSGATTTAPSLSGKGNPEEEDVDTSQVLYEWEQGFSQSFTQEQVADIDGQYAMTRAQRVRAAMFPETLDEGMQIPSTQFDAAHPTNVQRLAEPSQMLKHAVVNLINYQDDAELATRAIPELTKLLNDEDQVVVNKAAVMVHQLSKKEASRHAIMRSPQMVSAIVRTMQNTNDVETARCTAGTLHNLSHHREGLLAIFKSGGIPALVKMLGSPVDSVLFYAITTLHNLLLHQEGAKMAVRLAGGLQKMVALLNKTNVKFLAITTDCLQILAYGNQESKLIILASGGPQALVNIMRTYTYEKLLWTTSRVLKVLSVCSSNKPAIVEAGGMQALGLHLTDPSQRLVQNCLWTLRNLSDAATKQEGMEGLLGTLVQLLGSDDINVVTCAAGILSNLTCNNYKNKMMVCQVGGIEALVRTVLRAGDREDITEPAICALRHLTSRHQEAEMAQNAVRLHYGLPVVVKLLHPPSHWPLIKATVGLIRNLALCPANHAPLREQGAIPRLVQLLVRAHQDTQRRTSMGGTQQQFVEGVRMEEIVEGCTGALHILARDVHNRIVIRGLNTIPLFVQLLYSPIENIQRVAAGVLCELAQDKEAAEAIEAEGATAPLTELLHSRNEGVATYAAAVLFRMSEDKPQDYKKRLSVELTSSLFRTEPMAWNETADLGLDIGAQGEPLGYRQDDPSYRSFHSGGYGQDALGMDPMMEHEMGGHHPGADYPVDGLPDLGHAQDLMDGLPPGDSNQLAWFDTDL
T1 sequence (O00512 whole entry): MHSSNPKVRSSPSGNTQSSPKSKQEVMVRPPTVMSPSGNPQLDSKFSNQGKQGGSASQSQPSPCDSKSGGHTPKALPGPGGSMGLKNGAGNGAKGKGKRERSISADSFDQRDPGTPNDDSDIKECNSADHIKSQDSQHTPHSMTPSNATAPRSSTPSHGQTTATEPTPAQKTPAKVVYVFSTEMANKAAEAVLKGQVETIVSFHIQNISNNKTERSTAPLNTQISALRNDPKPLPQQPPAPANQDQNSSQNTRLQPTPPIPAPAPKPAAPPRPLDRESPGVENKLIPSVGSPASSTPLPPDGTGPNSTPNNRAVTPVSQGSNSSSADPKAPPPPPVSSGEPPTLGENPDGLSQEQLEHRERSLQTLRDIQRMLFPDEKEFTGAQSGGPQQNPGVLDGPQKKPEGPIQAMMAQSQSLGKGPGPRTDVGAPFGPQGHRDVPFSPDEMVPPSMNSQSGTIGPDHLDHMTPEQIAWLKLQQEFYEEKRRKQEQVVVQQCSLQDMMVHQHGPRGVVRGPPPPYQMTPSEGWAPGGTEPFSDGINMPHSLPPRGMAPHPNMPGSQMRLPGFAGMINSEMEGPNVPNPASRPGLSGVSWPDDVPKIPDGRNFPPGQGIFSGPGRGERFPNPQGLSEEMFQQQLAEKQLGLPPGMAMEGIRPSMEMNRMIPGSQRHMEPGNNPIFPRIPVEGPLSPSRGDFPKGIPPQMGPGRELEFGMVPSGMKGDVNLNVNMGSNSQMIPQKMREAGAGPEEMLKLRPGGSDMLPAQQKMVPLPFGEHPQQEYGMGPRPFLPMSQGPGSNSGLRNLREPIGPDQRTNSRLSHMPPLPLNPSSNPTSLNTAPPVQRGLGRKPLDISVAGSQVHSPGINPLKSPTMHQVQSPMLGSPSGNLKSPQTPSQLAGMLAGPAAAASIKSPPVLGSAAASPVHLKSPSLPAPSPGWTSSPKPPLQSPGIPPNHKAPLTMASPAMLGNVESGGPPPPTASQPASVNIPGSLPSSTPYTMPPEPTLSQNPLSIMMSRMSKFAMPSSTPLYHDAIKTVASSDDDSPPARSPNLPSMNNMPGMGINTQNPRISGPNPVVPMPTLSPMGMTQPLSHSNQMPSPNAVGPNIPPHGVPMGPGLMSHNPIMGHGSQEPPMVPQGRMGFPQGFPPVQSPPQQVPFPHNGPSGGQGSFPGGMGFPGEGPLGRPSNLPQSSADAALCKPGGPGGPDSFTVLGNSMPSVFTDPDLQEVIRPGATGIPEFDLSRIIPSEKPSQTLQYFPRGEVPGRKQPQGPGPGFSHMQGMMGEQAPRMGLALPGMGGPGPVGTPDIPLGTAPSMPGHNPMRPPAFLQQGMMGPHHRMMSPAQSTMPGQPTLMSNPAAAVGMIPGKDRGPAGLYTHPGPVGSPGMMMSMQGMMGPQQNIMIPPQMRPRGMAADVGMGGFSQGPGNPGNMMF

| SMILES | IC50 | Ki |
| --- | --- | --- |
| CC(C)c1ccc(CCNC(=O)C2CCCN(c3cccc(OC(C)(C)C(=O)O)c3)C2)cc1 (centres undefined) | 92 µM | 82 µM |
| COc1cccc(S(=O)(=O)NC(=O)C(C)(C)Oc2cccc(N3CCC[C@@H](C(=O)N(Cc4ccc(-c5cccs5)cc4)C4CC4)C3)c2)c1 | 5.7 µM | 4.6 µM |
| CC(C)(Oc1cccc(N2CCCC(C(=O)N(Cc3ccc(-c4cccs4)cc3)C3CC3)C2)c1)C(=O)NS(=O)(=O)c1ccc(C#N)cc1 (racemic) | 4.8 µM | 3.9 µM |
| CC(C)(Oc1cccc(N2CCCC(C(=O)N(Cc3ccc(-c4cccs4)cc3)C3CC3)C2)c1)C(=O)NS(C)(=O)=O (centres undefined) | 24 µM | 21 µM |
| CC(C)c1ccc(CN(C(=O)C2CCCN(c3cccc(OC(C)(C)C(=O)O)c3)C2)C(C)C)cc1 (centres undefined) | 52 µM | 46 µM |
| CC(C)(Oc1cccc(N2CCCC(C(=O)N(Cc3ccc(-c4cccs4)cc3)C3CC3)C2)c1)C(=O)NS(=O)(=O)c1cccc(O)c1 (centres undefined) | 7.1 µM | 5.8 µM |
| CC(C)(Oc1cccc(N2CCCC(C(=O)N(Cc3ccc(-c4cn[nH]c4)cc3)C3CC3)C2)c1)C(=O)O (centres undefined) | > 100 µM | > 90 µM |
| CC(C)(C)OC(=O)C(C)(C)Oc1cccc(N2CCCC(C(=O)N(Cc3ccc(-c4cccs4)cc3)C3CC3)C2)c1 (centres undefined) | > 100 µM | > 90 µM |
| CC(C)(Oc1cccc(N2CCCC(C(=O)N(Cc3ccc(-c4ccn[nH]4)cc3)C3CC3)C2)c1)C(=O)O (centres undefined) | 72 µM | 61 µM |
| CC(C)(Oc1cccc(N2CCCC(C(=O)N(Cc3ccc(-c4ccco4)cc3)C3CC3)C2)c1)C(=O)O (centres undefined) | 50 µM | 42 µM |
| CC(C)c1ccc(CNC(=O)C2CCCN(c3cccc(OC(C)(C)C(=O)O)c3)C2)cc1 (centres undefined) | 83 µM | 71 µM |
| Cn1nccc1-c1ccc(CN(C(=O)C2CCCN(c3cccc(OC(C)(C)C(=O)O)c3)C2)C2CC2)cc1 (centres undefined) | > 100 µM | > 90 µM |
| CC(C)(Oc1cccc(N2CCCC(C(=O)N(Cc3ccc(-c4cccs4)cc3)C3CC3)C2)c1)C(=O)O (centres undefined) | 15 µM | 13 µM |
| CC(C)c1ccc(CN(C)C(=O)C2CCCN(c3cccc(OC(C)(C)C(=O)O)c3)C2)cc1 (centres undefined) | 71 µM | 59 µM |
| COC(=O)C(C)(C)Oc1cccc(N2CCCC(C(=O)N(Cc3ccc(-c4cccs4)cc3)C3CC3)C2)c1 (centres undefined) | > 100 µM | > 90 µM |
| COc1ccc(S(=O)(=O)NC(=O)C(C)(C)Oc2cccc(N3CCCC(C(=O)N(Cc4ccc(-c5cccs5)cc4)C4CC4)C3)c2)cc1 (centres undefined) | 6.1 µM | 4.9 µM |
| CC(C)(Oc1cccc(N2CCC[C@@H](C(=O)N(Cc3ccc(-c4cccs4)cc3)C3CC3)C2)c1)C(=O)NS(=O)(=O)c1ccc(C#N)cc1 | 4.8 µM | 3.9 µM |
| CC(C)c1ccc(CN(C(=O)C2CCCN(c3cccc(OC(C)(C)C(=O)O)c3)C2)C2CC2)cc1 (centres undefined) | 40 µM | 36 µM |
| COc1cccc(S(=O)(=O)NC(=O)C(C)(C)Oc2cccc(N3CCCC(C(=O)N(Cc4ccc(-c5cccs5)cc4)C4CC4)C3)c2)c1 (centres undefined) | 5.1 µM | 4.1 µM |
| CCN(Cc1ccc(C(C)C)cc1)C(=O)C1CCCN(c2cccc(OC(C)(C)C(=O)O)c2)C1 (centres undefined) | 59 µM | 50 µM |
| Cn1cc(-c2ccc(CN(C(=O)C3CCCN(c4cccc(OC(C)(C)C(=O)O)c4)C3)C3CC3)cc2)cn1 (centres undefined) | > 100 µM | > 90 µM |
| CC(C)(Oc1cccc(N2CCCC(C(=O)N(Cc3ccc(-c4cccs4)cc3)C3CC3)C2)c1)C(=O)NS(=O)(=O)c1ccccc1 (centres undefined) | 7.7 µM | 6.4 µM |
| CC(C)(Oc1cccc(N2CCCC(C(=O)N(Cc3ccc(-c4cccs4)cc3)C3CC3)C2)c1)C(=O)NS(=O)(=O)c1cccc(C#N)c1 (centres undefined) | 6.3 µM | 5.1 µM |
| CC(C)(Oc1cccc(N2CCCC(C(=O)N(Cc3ccc(-c4cccs4)cc3)C3CC3)C2)c1)C(=O)NS(=O)(=O)C1CC1 (centres undefined) | 23 µM | 19 µM |
| CC(C)S(=O)(=O)NC(=O)C(C)(C)Oc1cccc(N2CCCC(C(=O)N(Cc3ccc(-c4cccs4)cc3)C3CC3)C2)c1 (centres undefined) | 13 µM | 11 µM |
| CC(C)(Oc1cccc(N2CCCC(C(=O)N(Cc3ccc(-c4ccoc4)cc3)C3CC3)C2)c1)C(=O)O (centres undefined) | > 100 µM | > 90 µM |
| CC(C)(Oc1cccc(N2CCCC(C(=O)N(Cc3ccc(-c4ccsc4)cc3)C3CC3)C2)c1)C(=O)O (centres undefined) | 35 µM | 30 µM |

Each molecule was assayed on SW480 (assay: Antiproliferative activity against human SW480 cells incubated for 72 hrs by MTS assay). Conditions: SW480, 72 h.
Type: functional, cell-based

| SMILES | IC50 |
| --- | --- |
| CC(C)(C)OC(=O)C(C)(C)Oc1cccc(N2CCCC(C(=O)N(Cc3ccc(-c4cccs4)cc3)C3CC3)C2)c1 (centres undefined) | > 200 µM |
| CC(C)(Oc1cccc(N2CCCC(C(=O)N(Cc3ccc(-c4cccs4)cc3)C3CC3)C2)c1)C(=O)O (centres undefined) | 137 µM |

These molecules were tested on HCT-116 (assay: Antiproliferative activity against human HCT116 cells incubated for 72 hrs by MTS assay). Conditions: HCT-116, 72 h.
Type: functional, cell-based

| SMILES | IC50 |
| --- | --- |
| CC(C)(C)OC(=O)C(C)(C)Oc1cccc(N2CCCC(C(=O)N(Cc3ccc(-c4cccs4)cc3)C3CC3)C2)c1 (centres undefined) | > 200 µM |
| CC(C)(Oc1cccc(N2CCCC(C(=O)N(Cc3ccc(-c4cccs4)cc3)C3CC3)C2)c1)C(=O)O (centres undefined) | 112 µM |

What follows are molecules tested on MDA-MB-231 (assay: Antiproliferative activity against human MDA-MB-231 cells incubated for 72 hrs by MTS assay). Conditions: MDA-MB-231, 72 h.
Type: functional, cell-based

| SMILES | IC50 |
| --- | --- |
| CC(C)(C)OC(=O)C(C)(C)Oc1cccc(N2CCCC(C(=O)N(Cc3ccc(-c4cccs4)cc3)C3CC3)C2)c1 (centres undefined) | > 200 µM |
| CC(C)(Oc1cccc(N2CCCC(C(=O)N(Cc3ccc(-c4cccs4)cc3)C3CC3)C2)c1)C(=O)O (centres undefined) | 103 µM |

These molecules were tested on MDA-MB-468 (assay: Antiproliferative activity against human MDA-MB-468 cells incubated for 72 hrs by MTS assay). Conditions: MDA-MB-468, 72 h.
Type: functional, cell-based

| SMILES | IC50 |
| --- | --- |
| CC(C)(C)OC(=O)C(C)(C)Oc1cccc(N2CCCC(C(=O)N(Cc3ccc(-c4cccs4)cc3)C3CC3)C2)c1 (centres undefined) | > 200 µM |
| CC(C)(Oc1cccc(N2CCCC(C(=O)N(Cc3ccc(-c4cccs4)cc3)C3CC3)C2)c1)C(=O)O (centres undefined) | 95.9 µM |

These molecules were tested on MCF-10A (assay: Antiproliferative activity against human MCF10A cells incubated for 72 hrs by MTS assay). Conditions: not given.
Type: functional, cell-based

| SMILES | IC50 |
| --- | --- |
| CC(C)(C)OC(=O)C(C)(C)Oc1cccc(N2CCCC(C(=O)N(Cc3ccc(-c4cccs4)cc3)C3CC3)C2)c1 (centres undefined) | > 200 µM |
| CC(C)(Oc1cccc(N2CCCC(C(=O)N(Cc3ccc(-c4cccs4)cc3)C3CC3)C2)c1)C(=O)O (centres undefined) | 98.5 µM |

— ChEMBL document CHEMBL4823263, “Discovery of 2-(3-(3-Carbamoylpiperidin-1-yl)phenoxy)acetic Acid Derivatives as Novel Small-Molecule Inhibitors of the β-Catenin/B-Cell Lymphoma 9 Protein-Protein Interaction” (J Med Chem, 2021)
